Laboratory results: patent publication US6512123B2, “Tricyclic alkylhydroxamate derivatives” (Hoffmann-La Roche Inc., priority 2001, dated 2003)

What was measured:
[1] = test system: histone deacetylase (HDAC); assay: HDAC inhibition screening assay using an aminocoumarin derivative of an omega-acetylated lysine as substrate; assay type: biochemical; conditions: compound concentration 10 nM
Procedure: To measure the inhibitory properties of the compounds of the invention, a screening assay was performed using an aminocoumarin derivative of an omega-acetylated lysine as substrate for the enzmye. This assay has been described in detail in the literature (Hoffmann, K., et al., Nucleic Acids Res. 27 (1999)2057-2058). Using the protocol described therein, there was measured the inhibitory effect of the compounds at a concentration of 10 nM.

O=C(CCCCCCOc1ccc2c(c1)[nH]c1ccccc12)NO [Example 5, 7-(9H-Carbazol-2-yloxy)-heptanoic Acid Hydroxyamide]
Inhibitory effect at 10 nM in % [1]: 100%
melting point: 198 °C

O=C(CCCCCCCOc1ccc2c(c1)C(=O)c1ccccc1CO2)NO [Example 1, 8-(11-Oxo-6,1 1-Dihydro-dibenzo[b,e]oxepin-2-yloxy)-octanoic Acid Hydroxyamide]
Inhibitory effect at 10 nM in % [1]: 62%

O=C(CCCCCCCOc1ccc2c(c1)[nH]c1ccccc12)NO [Example 3, 8-(9H-Carbazol-2-yloxy)-octanoic Acid Hydroxyamide]
Inhibitory effect at 10 nM in % [1]: 86%

O=C(CCCCCOc1ccc2c(c1)[nH]c1ccccc12)NO [Example 6, 6-(9H-Carbazol-2-yloxy)-hexanoic Acid Hydroxyamide]
Inhibitory effect at 10 nM in % [1]: 80%
melting point: 192 °C

O=C(CCCCOc1ccc2c(c1)[nH]c1ccccc12)NO [Example 7, 5-(9H-Carbazol-2-yloxy)-pentanoic Acid Hydroxyamide]
Inhibitory effect at 10 nM in % [1]: 69%

O=C(CCCCCCCOc1ccc2c(c1)C(O)c1ccccc1-2)NO (racemic) [Example 2, rac-8-(9-Hydroxy-9H-fluoren-2-yloxy)-octanoic Acid Hydroxyamide]
Inhibitory effect at 10 nM in % [1]: 79%

O=C(CCCCCCCOc1cccc2[nH]c3ccccc3c12)NO [Example 4, 8-(9H-Carbazol-4-yloxy)-octanoic Acid Hydroxyamide]
Inhibitory effect at 10 nM in % [1]: 97%
